Reference: patent US12077503B2, “Substituted cyclic amides and their use as herbicides” (FMC CORPORATION, priority 2015, dated 2024)

Columns and labels:
Type in all cases: in vivo
[1] = test system: ryegrass, Italian (Italian ryegrass, Lolium multiflorum); assay: Test A preemergence; settings: Lolium multiflorum, pre-emergence, 240 h, 0 to 100 scale where 0 is no effect and 100 is complete control, read-out: Ryegrass, Italian plant response rating
In short: (§1)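 Visual injury, scored on a 0–100 scale relative to untreated controls, was recorded about 10 d after application. Treatments were a preemergence soil spray over planted seeds or a postemergence spray on plants at the one- to two-leaf stage, 2 to 10 cm tall, all in loam soil–sand blend in the greenhouse.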

[2] = test system: giant foxtail (Setaria faberii); assay: Test A preemergence; settings: Setaria faberi, pre-emergence, 240 h, 0 to 100 scale where 0 is no effect and 100 is complete control, read-out: Foxtail, Giant plant response rating
In short: as §1

Kochia (Kochia scoparia) [3] = assay: Test A preemergence; settings: Bassia scoparia, pre-emergence, 240 h, 0 to 100 scale where 0 is no effect and 100 is complete control, read-out: Kochia plant response rating
In short: as §1

[4] = test system: pigweed (Amaranthus retroflexus); assay: Test A preemergence; settings: Amaranthus retroflexus, pre-emergence, 240 h, 0 to 100 scale where 0 is no effect and 100 is complete control, read-out: Pigweed plant response rating
[5] = test system: ragweed (common ragweed, Ambrosia elatior); assay: Test A preemergence; settings: Ambrosia artemisiifolia, pre-emergence, 240 h, 0 to 100 scale where 0 is no effect and 100 is complete control, read-out: Ragweed plant response rating
In short: as §1

[6] = test system: barnyardgrass (Echinochloa crus-galli); assay: Test A preemergence; settings: Echinochloa crus-galli, pre-emergence, 240 h, 0 to 100 scale where 0 is no effect and 100 is complete control, read-out: Barnyardgrass plant response rating
In short: as §1

[7] = test system: ryegrass, Italian (Italian ryegrass, Lolium multiflorum); assay: Test A postemergence; settings: Lolium multiflorum, post-emergence, 240 h, read-out: Ryegrass, Italian plant response rating (0 to 100 scale)
In short: as §1

[8] = test system: giant foxtail (Setaria faberii); assay: Test A postemergence; settings: Setaria faberi, post-emergence, 240 h, read-out: Foxtail, Giant plant response rating (0 to 100 scale)
In short: as §1

[9] = test system: wheat (Triticum aestivum); assay: Test A postemergence; settings: Triticum aestivum, post-emergence, 240 h, read-out: Wheat plant response rating (0 to 100 scale)
In short: as §1

Kochia (Kochia scoparia) [10] = assay: Test A postemergence; settings: Bassia scoparia, post-emergence, 240 h, read-out: Kochia plant response rating (0 to 100 scale)
In short: as §1

[11] = test system: pigweed (Amaranthus retroflexus); assay: Test A postemergence; settings: Amaranthus retroflexus, post-emergence, 240 h, read-out: Pigweed plant response rating (0 to 100 scale)
In short: as §1

[12] = test system: ragweed (common ragweed, Ambrosia elatior); assay: Test A postemergence; settings: Ambrosia artemisiifolia, post-emergence, 240 h, read-out: Ragweed plant response rating (0 to 100 scale)
In short: as §1

[13] = test system: barnyardgrass (Echinochloa crus-galli); assay: Test A postemergence; settings: Echinochloa crus-galli, post-emergence, 240 h, read-out: Barnyardgrass plant response rating (0 to 100 scale)
In short: as §1

[14] = test system: Galium (catchweed bedstraw, Galium aparine); assay: Test A postemergence; settings: Galium, post-emergence, 240 h, read-out: Galium plant response rating (0 to 100 scale)
In short: as §1

[15] = test system: blackgrass (Alopecurus myosuroides); assay: Test A postemergence; settings: Alopecurus myosuroides, post-emergence, 240 h, read-out: Blackgrass plant response rating (0 to 100 scale)
In short: as §1

corn (Zea mays) = assay: Test A postemergence; settings: Zea mays, post-emergence, 240 h, read-out: Corn plant response rating (0 to 100 scale)
In short: as §1

[16] = test system: sedge, umbrella (small-flower umbrella sedge, Cyperus difformis); assay: Test B flooded paddy test; settings: Cyperus difformis, 250 g ai/ha, Flood; 0 to 100 scale where 0 is no effect and 100 is complete control; read-out: Sedge, Umbrella plant response rating
In short: (§2)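 Rating scale 0–100 (visual, vs untreated controls) after a 13–15 d greenhouse period; application to the flood layer, 3 cm above soil and maintained; plants at 2-leaf stage when treated.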

[17] = test system: ducksalad (Heteranthera limosa); assay: Test B flooded paddy test; settings: Heteranthera limosa, 250 g ai/ha, Flood; 0 to 100 scale where 0 is no effect and 100 is complete control; read-out: Ducksalad plant response rating
In short: as §2

rice (Oryra sativa) = assay: Test B flooded paddy test; settings: Oryza sativa, 250 g ai/ha, Flood; 0 to 100 scale where 0 is no effect and 100 is complete control; read-out: Rice plant response rating
In short: as §2

[18] = test system: barnyardgrass (Echinochloa crus-galli); assay: Test B flooded paddy test; settings: Echinochloa crus-galli, 250 g ai/ha, Flood; 0 to 100 scale where 0 is no effect and 100 is complete control; read-out: Barnyardgrass plant response rating
In short: as §2

[19] = 125 g ai/ha, preemergence, visual injury rating, approximately 10 d
[20] = 125 g ai/ha, postemergence, visual injury vs untreated controls after approx. 10 d, 0 = no effect, 100 = complete control
[21] = Postemergence, 31 g ai/ha, 0 is no effect, 100 is complete control

With `Cc1ccc([C@H]2CN(C)C(=O)[C@@H]2C(=O)Nc2cccc(C#N)c2F)cc1` [Compound 1188] the pest or weed control at 31 g/ha ([1]; 31 g ai/ha, Preemergence) was 0%, the pest or weed control at 125 g/ha [1, 19] was 60% and the pest or weed control at 31 g/ha ([2]; 31 g ai/ha, Preemergence) was 90%. For the same molecule, the pest or weed control at 125 g/ha [2, 19] was 100%, the pest or weed control at 31 g/ha (Kochia (Kochia scoparia) [3]; 31 g ai/ha, Preemergence) was 60% and the pest or weed control at 125 g/ha (Kochia (Kochia scoparia) [3]; [19]) was 80%. It also gave a pest or weed control at 31 g/ha ([4]; 31 g ai/ha, Preemergence) of 40%, a pest or weed control at 125 g/ha [4, 19] of 80% and a pest or weed control at 31 g/ha ([5]; 31 g ai/ha, Preemergence) of 30%. It also gave a pest or weed control at 125 g/ha [5, 19] of 70%, a pest or weed control at 31 g/ha ([6]; 31 g ai/ha, Preemergence) of 90% and a pest or weed control at 125 g/ha [6, 19] of 100%. The pest or weed control at 125 g/ha [7, 20] was 40%, the pest or weed control at 31 g/ha [7, 21] was 0% and the pest or weed control at 125 g/ha [8, 20] was 80%. It also gave a pest or weed control at 31 g/ha [8, 21] of 70%, a plant injury at 125 g/ha [9, 20] of 40% and a plant injury at 31 g/ha [9, 21] of 0%. The pest or weed control at 125 g/ha (Kochia (Kochia scoparia) [10]; [20]) was 50%, the pest or weed control at 31 g/ha (Kochia (Kochia scoparia) [10]; [21]) was 0% and the pest or weed control at 125 g/ha [11, 20] was 20%. The pest or weed control at 31 g/ha [11, 21] was 0%, the pest or weed control at 125 g/ha [12, 20] was 40% and the pest or weed control at 31 g/ha [12, 21] was 0%. It also gave a pest or weed control at 125 g/ha [13, 20] of 100%, a pest or weed control at 31 g/ha [13, 21] of 70% and a pest or weed control at 125 g/ha [14, 20] of 60%. It also gave a pest or weed control at 31 g/ha [14, 21] of 50%, a pest or weed control at 125 g/ha [15, 20] of 70% and a pest or weed control at 31 g/ha [15, 21] of 30%. The plant injury at 125 g/ha (corn (Zea mays); [20]) was 50%, the plant injury at 31 g/ha (corn (Zea mays); [21]) was 0% and the pest or weed control at 250 g/ha [16] was 0%. The pest or weed control at 250 g/ha [17] was 100%, the pest or weed control at 250 g/ha (rice (Oryra sativa)) was 15% and the pest or weed control at 250 g/ha [18] was 65%.
